Reference: the supplement of paper PMC10307832

Columns and labels:
Experiment in all cases: relative viability (nuclei count vs DMSO), 5 days (fraction); higher = more cells survive
[1] = compound: C/C(=N\NC(=S)N1CCC1)/C2=CC=CC=N2
How it was run: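 Lung cancer cell lines in 1536-well plates were kept overnight at 37 °C, then pinned with five library-drug doses (not always all listed) spaced by √10 on vehicle-anchored plates. After 5 days without medium change, cells were fixed, permeabilised and Hoechst-stained in one step, imaged at 4×, and nuclei were counted with MetaXpress. Viability is treated-well nuclei divided by vehicle-well nuclei, taken as the median over plates. Plates passed only with control CV below 25% and at least one doubling.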

[2] = compound: C/C(=N\NC(=S)N1CCC1)/C2=CC=CC=N2 + Cc1cc(Nc2cc(N3CCN(C)CC3)nc(Sc3ccc(NC(=O)C4CC4)cc3)n2)n[nH]1 [Tozasertib] (partner 0.1 µM)
How it was run: (§1)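 Relative viability divides the nuclei count in treated wells by that in vehicle wells. Lung cancer cell lines were seeded in 1536-well plates, dosed by pin tool the next day, and fixed and stained after 5 days in one step with final 0.05% Triton X-100, 1% formaldehyde and 1 ug/ml Hoechst. Dosing was a single drug or a fixed anchor-drug dose plus five library-drug doses (not always all listed) in √10 steps, and values are medians of duplicate plates imaged at 4×.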

[3] = compound: C/C(=N\NC(=S)N1CCC1)/C2=CC=CC=N2 + CC1(C)CCC(c2ccc(Cl)cc2)=C(CN2CCN(c3ccc(C(=O)NS(=O)(=O)c4ccc(N[C@H](CCN5CCOCC5)CSc5ccccc5)c(S(=O)(=O)C(F)(F)F)c4)cc3)CC2)C1 [Navitoclax] (partner 0.5 µM)
How it was run: as §1

[4] = compound: C/C(=N\NC(=S)N1CCC1)/C2=CC=CC=N2 + N=C(N)NC(=N)NCCc1ccccc1 [Phenformin] (partner 250 µM)
How it was run: as §1

Cell Line	relative viability ([1]; 0.05 µM)	relative viability ([1]; 0.1581 µM)	relative viability ([1]; 0.5 µM)	relative viability ([1]; 1.581 µM)	relative viability ([1]; 5 µM)	relative viability ([2]; first compound 0.05 µM)	relative viability ([2]; first compound 0.1581 µM)	relative viability ([2]; first compound 0.5 µM)	relative viability ([2]; first compound 1.581 µM)	relative viability ([2]; first compound 5 µM)	relative viability ([3]; first compound 0.05 µM)	relative viability ([3]; first compound 0.1581 µM)	relative viability ([3]; first compound 0.5 µM)	relative viability ([3]; first compound 1.581 µM)	relative viability ([3]; first compound 5 µM)	relative viability ([4]; first compound 0.05 µM)	relative viability ([4]; first compound 0.1581 µM)	relative viability ([4]; first compound 0.5 µM)	relative viability ([4]; first compound 1.581 µM)	relative viability ([4]; first compound 5 µM)
201T	0.432	0.443	0.353	0.345	0.309	0.424	0.445	0.368	0.292	0.296	0.891	1.18	0.708	0.516	0.453	0.362	0.355	0.343	0.311	0.247
A549	0.0587	0.0516	0.0603	0.0557	0.0345	–	–	–	–	–	0.0538	0.0583	0.05	0.0608	0.0344	0.0324	0.034	0.0226	0.0286	0.0232
A-427	0.16	0.173	0.15	0.144	0.156	0.1	0.0846	0.12	0.077	0.102	0.182	0.664	0.141	0.125	0.133	0.13	0.142	0.134	0.121	0.138
ABC-1	0.38	0.303	0.245	0.259	0.361	0.193	0.146	0.152	0.168	0.163	–	–	–	–	–	0.196	0.203	0.222	0.202	0.14
BEN	0.278	0.237	0.276	0.23	0.227	0.334	0.354	0.336	0.352	0.397	0.0467	0.0428	0.0598	0.115	0.114	0.155	0.16	0.178	0.232	0.201
CAL-12T	0.197	0.181	0.16	0.149	0.133	0.128	0.12	0.131	0.107	0.113	0.168	0.139	0.171	0.144	0.118	0.171	0.15	0.136	0.112	0.101
Calu-6	0.118	0.147	0.154	0.12	0.14	–	–	–	–	–	0.106	0.122	0.123	0.141	0.126	–	–	–	–	–
EBC-1	0.169	0.214	0.169	0.127	0.154	–	–	–	–	–	0.135	0.146	0.136	0.134	0.174	–	–	–	–	–
IA-LM	0.0692	0.0771	0.0669	0.0644	0.0517	–	–	–	–	–	0.0776	0.062	0.0799	0.0503	0.0417	–	–	–	–	–
LCLC-103H	0.336	0.331	0.347	0.335	0.357	0.244	0.175	0.202	0.133	0.165	–	–	–	–	–	0.17	0.172	0.21	0.129	0.187
NCI-H358	0.132	0.125	0.143	0.119	0.114	0.0651	0.0617	0.0695	0.0742	0.0612	–	–	–	–	–	0.0917	0.112	0.101	0.0719	0.107
NCI-H522	0.334	0.389	0.351	0.346	0.358	–	0.292	0.296	–	0.407	–	–	–	–	–	–	0.27	0.398	–	0.503
NCI-H650	0.22	0.232	0.222	0.196	0.175	0.184	0.189	0.185	0.158	0.16	–	–	–	–	–	0.23	0.277	0.208	0.247	0.189
NCI-H661	0.288	0.32	0.317	0.255	0.262	0.239	0.261	0.23	0.235	0.248	–	–	–	–	–	0.262	0.269	0.254	0.211	0.231
NCI-H1299	0.1	0.12	0.186	0.185	0.145	–	–	–	–	–	0.0935	0.128	0.17	0.178	0.124	–	–	–	–	–
NCI-H1563	0.62	0.6	0.504	0.538	0.522	–	–	–	–	–	–	–	–	–	–	0.374	0.472	0.491	0.506	0.611
NCI-H1648	0.317	0.278	0.25	0.317	0.304	0.275	0.216	0.229	0.309	0.233	–	–	–	–	–	–	–	–	–	–
NCI-H1703	0.0684	0.0887	0.112	0.126	0.161	–	–	–	–	–	0.124	0.134	0.156	0.124	0.122	–	–	–	–	–
NCI-H1792	0.362	0.234	0.227	0.184	0.134	–	–	–	–	–	0.256	0.274	0.127	0.0935	0.084	0.122	0.096	0.108	0.063	0.0674
NCI-H2342	0.274	0.277	0.266	0.239	0.259	0.229	0.264	0.263	0.219	0.247	–	–	–	–	–	0.25	0.232	0.266	0.231	0.25
